One assay has as its system CEM/C2. To be noted: CEM/C2 cell line obtained from ATCC; cited from earlier work.
The test system of the next assay is U937 cells. Kind of assay: Escape velocity, effect of camptothecin on U937 cells. It is filed as cell-based. Particulars: camptothecin-treated U937 cells. As for the experimental part: The objective of this experiment is to test the effects of camptothecin on the escape velocities of U937 cells. Camptothecin inhibits DNA topoisomerase I and induces apoptosis. A control and three concentrations of camptothecin were tested: […]. After adding the camptothecin, the flasks are incubated at 37° C. 5% CO2.
At the timepoints of 4 hours and 6 hours, 200 μl of cells are spun for 5 minutes at 5000 rpm. The cells are then resuspended in […] PBS/1% BSA and […] trypan blue.
Optophoretic techniques have been investigated for their potential to detect the early onset of apoptosis in mammalian cells. U.S. patent application Ser. No. 10,240,611, for example, discloses multiple experiments in which U937 cells were treated with camptothecin and subsequently monitored Optophoretically using measured escape velocities. In one experiment, the escape velocity of the camptothecin-treated cells were measured at 4 and 6 hours after treatment. Noticeable changes in escape velocity were seen as early as 4 hours after treatment (see, e.g., FIG. 34). In that experiment, U937 cells were treated with 4 μg/ml of camptothecin and resuspended in PBS/1% BSA. Escape velocity measurements were taken after 4 and 6 hours. Table 18, reproduced below, includes the results of the escape velocity measurements for the test cells as well as the controls.

For the compound `CC[C@@]1(O)C(=O)OCc2c1cc1n(c2=O)Cc2cc3ccccc3nc2-1` [Camptothecin], the “less sensitive than parental cell line CCRF-CEM” value in the assay with CEM/C2 is 970 fold. For the same compound, the “time after treatment at which noticeable changes in escape velocity were seen” value in the assay on U937 cells is at most 4 h.

Source of the values: US20040121474A1, “Detection and evaluation of chemically-mediated and ligand-mediated t-cell activation using optophoretic analysis” (Genoptix, Inc, priority 2002, published 2004).
